The record followed here is US20070004660A1, “Synergistic Modulation of Flt3 Kinase Using Alkylquinolines and Alkylquinazolines” (priority 2005, published 2007).

Usually IC50 stands for the concentration that inhibits the measured activity by half. A higher IC50 goes with weaker potency in that assay.

The target of experiment [1] is T1, isolated kinase domain of the human FLT3 receptor (a.a. 571-993) (Homo sapiens, UniProt P36888).
T1 construct: human FLT3 receptor (a.a. 571-993)
T1 sequence (P36888 571-993): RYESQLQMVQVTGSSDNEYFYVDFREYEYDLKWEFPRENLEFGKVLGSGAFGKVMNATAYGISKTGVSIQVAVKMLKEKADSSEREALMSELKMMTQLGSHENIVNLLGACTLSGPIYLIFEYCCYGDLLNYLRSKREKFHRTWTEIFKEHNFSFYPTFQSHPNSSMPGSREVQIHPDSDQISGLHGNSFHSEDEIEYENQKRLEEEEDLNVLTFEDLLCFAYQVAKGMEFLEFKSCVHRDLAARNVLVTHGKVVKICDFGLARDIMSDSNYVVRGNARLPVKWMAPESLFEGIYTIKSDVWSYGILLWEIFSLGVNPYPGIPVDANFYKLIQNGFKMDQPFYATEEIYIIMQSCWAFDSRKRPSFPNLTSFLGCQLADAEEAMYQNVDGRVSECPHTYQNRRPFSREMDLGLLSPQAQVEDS
Briefly: FLT3 fluorescence polarization kinase assay. Type of experiment: biochemical. To be noted: 150 uM ATP; uncertainty ±10%. For orientation: Fluorescence polarisation rises when a labelled molecule tumbles more slowly, as on binding a larger partner.

In experiment [2] the test system is MV4-11 cells. Briefly: Inhibition of MV4-11 cell proliferation (CellTiterGlo, 72 h). The experiment is classed as cell-based. To be noted: Homo sapiens; 72 h growth inhibition; uncertainty ±20%. On the technique in general: In ATP-based viability assays light output follows the ATP content of the culture.

On to `CC(C)Oc1ccc(NC(=O)N2CCC(c3ncnc4cc(OCCN5CCCCC5)ccc34)CC2)cc1` [Example 34, 4-(7-(2-Piperindin-1-yl-ethoxy)-quinazolin-4-yl)-piperidine-1-carboxylic acid (4-isopropoxy-phenyl)-amide], for which the results for the IC50 in experiment [1] and in experiment [2] were 49 nM and 95 nM, respectively.
The corresponding values for `COc1cc2c(C3CCN(C(=O)Nc4ccc(N5CCOCC5)cc4)CC3)ncnc2cc1OCCCN1CCN(C)CC1` [Compound 207, 4-{6-Methoxy-7-[3-(4-methyl-piperazin-1-yl)-propoxy]-quinazolin-4-yl}-piperidine-1-carboxylic acid (4-morpholin-4-yl-phenyl)-amide] are 29 nM and 48 nM.
Taken in the same sequence, the figures for `COc1cc2c(C3CCN(C(=O)Nc4ccc(N5CCOCC5)cc4)CC3)ncnc2cc1N1CCOCC1` [Compound 212, 4-(6-Methoxy-7-morpholin-4-yl-quinazolin-4-yl)-piperidine-1-carboxylic acid (4-morpholin-4-yl-phenyl)-amide] were 239 nM and 367 nM.
On to `CCN(CC)CCOc1ccc2c(C3CCN(C(=O)Nc4ccc(OC(C)C)cc4)CC3)ncnc2c1` [Example 35, 4-[7-(2-Diethylamino-ethoxy)-quinazolin-4-yl)-piperidine-1-carboxylic acid (4-isopropoxy-phenyl)-amide], for which the IC50 came to 47 nM in experiment [1] and 95 nM in experiment [2].
Taken in the same sequence, the figures for `COc1cc2c(C3CCN(C(=O)Nc4ccc(N5CCCC5)cc4)CC3)ncnc2cc1OCCN1CCCC1=O` [Compound 209, 4-{6-Methoxy-7-[2-(2-oxo-pyrrolidin-1-yl)-ethoxy]-quinazolin-4-yl}-piperidine-1-carboxylic acid (4-pyrrolidin-1-yl-phenyl)-amide] were 17 nM and 26 nM.
The corresponding values for `COc1cc2c(C3CCN(C(=O)Nc4ccc(N5CCCC5)cc4)CC3)ncnc2cc1N1CCOCC1` [Compound 211, 4-(6-Methoxy-7-morpholin-4-yl-quinazolin-4-yl)-piperidine-1-carboxylic acid (4-pyrrolidin-1-yl-phenyl)-amide] are 8 nM and 20 nM.
The corresponding values for `CC(C)Oc1ccc(NC(=O)N2CCC(c3ncnc4cc(OCCCN5CCN(C)CC5)ccc34)CC2)cc1` [Example 39] are 15 nM and 14 nM.
With `COc1ccc2c(C3CCN(C(=O)Nc4ccc(C(C)C)cc4)CC3)ncnc2c1` [Example 32, 4-(7-Methoxy-quinazolin-4-yl)-piperidine-1-carboxylic acid (4-isopropyl-phenyl)-amide], the concentration for half-maximal inhibition (IC50) in experiment [1] worked out at 11 nM; in experiment [2], 235 nM.
The corresponding values for `COc1cc2ncnc(C3CCN(C(=O)Nc4ccc(NC(C)=O)cc4)CC3)c2cc1OC` [Example 25, 4-(6,7-Dimethoxy-quinazolin-4-yl)-piperidine-1-carboxylic acid (4-acetylamino-phenyl)-amide] are 6100 nM and greater than 10000 nM.
The corresponding values for `COc1ccc2c(C3CCN(C(=O)Nc4ccc(OC(C)C)cc4)CC3)ncnc2c1` [Example 31, 4-(7-Methoxy-quinazolin-4-yl)-piperidine-1-carboxylic acid (4-isopropoxy-phenyl)-amide] are 21 nM and 85 nM.
Taken in the same sequence, the figures for `CCN(CC)CCCOc1ccc2c(C3CCN(C(=O)Nc4ccc(OC(C)C)cc4)CC3)ncnc2c1` [Example 36, 4-[7-(3-Diethylamino-propoxy)-quinazolin-4-yl)-piperidine-1-carboxylic acid (4-isopropoxy-phenyl)-amide] were 18 nM and 42 nM.
As for `CC(C)Oc1ccc(NC(=O)N2CCC(c3ncnc4cc(Cl)ccc34)CC2)cc1` [Example 29, 4-(7-Chloro-quinazolin-4-yl)-piperidine-1-carboxylic acid (4-isopropoxy-phenyl)-amide], the IC50 in experiment [1] is 150 nM; in experiment [2], 315 nM.
Taken in the same sequence, the figures for `COc1cc2ncnc(C3CCN(C(=O)Nc4ccc(-n5ccnc5)cc4)CC3)c2cc1OC` [Example 3, 4-(6,7-Dimethoxy-quinazolin-4-yl)-piperidine-1-carboxylic acid (4-imidazol-1-yl-phenyl)-amide] were 3900 nM and 636 nM.
Turning to `CC(C)Oc1ccc(NC(=O)N2CCC(c3ncnc4cc(OCCCN5CCCCC5)ccc34)CC2)cc1` [Example 33, 4-(7-(3-Piperidin-1-yl-propoxy)-quinazolin-4-yl)-piperidine-1-carboxylic acid (4-isopropoxy-phenyl)-amide], the IC50 in experiment [1] amounted to 11 nM; in experiment [2] it was 50 nM.
The corresponding values for `CC(C)c1ccc(NC(=O)N2CCC(c3ncnc4cc(Cl)ccc34)CC2)cc1` [Example 30, 4-(7-Chloro-quinazolin-4-yl)-piperidine-1-carboxylic acid (4-isopropyl-phenyl)-amide] are 35 nM and 380 nM.
The corresponding values for `COc1cc2ncnc(C3CCN(C(=O)Nc4ccc(I)cc4)CC3)c2cc1OC` [Example 2, 4-(6,7-Dimethoxy-quinazolin-4-yl)-piperidine-1-carboxylic acid (4-iodo-phenyl)-amide] are 210 nM and 752 nM.
The corresponding values for `COCCOc1ccc(NC(=O)N2CCC(c3ncnc4cc(OC)c(OC)cc34)CC2)cc1` [Example 40, 4-(6,7-Dimethoxy-quinazolin-4-yl)-piperidine-1-carboxylic acid [4-(2-methoxy-ethoxy)-phenyl]-amide] are 910 nM and 2200 nM.
With `O=C(Nc1ccc(N2CCCC2)cc1)N1CCC(c2ncnc3cc(N4CCOCC4)c(F)cc23)CC1` [Compound 210, 4-(6-Fluoro-7-morpholin-4-yl-quinazolin-4-yl)-piperidine-1-carboxylic acid (4-pyrrolidin-1-yl-phenyl)-amide], the results for the IC50 in experiment [1] and in experiment [2] were 21 nM and 102 nM, respectively.
Taken in the same sequence, the figures for `O=C1CCCN1CCOc1cc2ncnc(C3CCN(C(=O)Nc4ccc(N5CCCC5)cc4)CC3)c2cc1F` [Compound 206, 4-{6-Fluoro-7-[2-(2-oxo-pyrrolidin-1-yl)-ethoxy]-quinazolin-4-yl}-piperidine-1-carboxylic acid (4-pyrrolidin-1-yl-phenyl)-amide] were 28 nM and 61 nM.
Taken in the same sequence, the figures for `CC(C)Oc1ccc(NC(=O)N2CCC(c3ncnc4cc(OCCCN5CCOCC5)ccc34)CC2)cc1` [Example 38] were 6 nM and 16 nM.
The corresponding values for `COc1cc2ncnc(C3CCN(C(=O)Nc4ccc(N(C)C)cc4)CC3)c2cc1OC` [Example 26, 4-(6,7-Dimethoxy-quinazolin-4-yl)-piperidine-1-carboxylic acid (4-dimethylamino-phenyl)-amide] are 200 nM and 204 nM.
With `CC(C)Oc1ccc(NC(=O)N2CCC(c3ncnc4cc(OCCN5CCOCC5)ccc34)CC2)cc1` [Example 37], the IC50 in experiment [1] was found to be 7 nM; in experiment [2] it was 165 nM.
Taken in the same sequence, the figures for `COc1cc2ncnc(C3CCN(C(=O)Cc4ccc(C(C)C)cc4)CC3)c2cc1OC` [Example 28, 1-[4-(6,7-Dimethoxy-quinazolin-4-yl)-piperidin-1-yl]-2-(4-isopropyl-phenyl)-ethanone] were 8 nM and 15 nM.
